Laboratory results reported in patent US7897582B2, “Oligonucleotide compositions and methods for the modulation of the expression of B7 protein” (Isis Pharmaceuticals, Inc., priority 2003, dated 2011).
Strand notation (5' to 3'): a small letter for the sugar, then the base; units joined by * are phosphorothioate-linked, units joined directly phosphodiester-linked; [ ] holds rarer units or linkages, { } end groups; capitals alone tell only the bases. e = 2'-O-(2-methoxyethyl) (MOE); [5mC] = 5-methylcytosine; d = 2'-deoxy (DNA)

Tested on: human B7.2 mRNA
Experiment: Human B7.2 mRNA levels in THP-1 cells by quantitative real-time PCR (Example 27)
Assay type: cell-based
Parameters: concentration or dose not given beside the values
Source text: In accordance with the present invention, an additional series of antisense compounds were designed to target different regions of the human B7.2 RNA, using published sequences (GenBank accession number U04343.1, incorporated herein as SEQ ID NO: 295, GenBank accession number BC040261.1, incorporated herein as SEQ ID NO: 296 and GenBank accession number NT—005543.12, a portion of which is incorporated herein as SEQ ID NO: 297). “Target site” indicates the first (5′-most) nucleotide number on the particular target sequence to which the compound binds. All compounds in Table 25 are chimeric oligonucleotides (“gapmers”) 20 nucleotides in length, composed of a central “gap” region consisting of ten 2′-deoxynucleotides, which is flanked on both sides (5′ and 3′ directions) by five-nucleotide “wings”. The wings are composed of 2′-methoxyethyl (2′-MOE)nucleotides. The internucleoside (backbone) linkages are phosphorothioate (P═S) throughout the oligonucleotide. All cytidine residues are 5-methylcytidines. The compounds were analyzed for their effect on human B7.2 mRNA levels in THP-1 cells by quantitative real-time PCR as described in other examples herein. Data are averages from three experiments. If present, “N.D.” indicates “no data”.

| Substance | % INHIB (inhibition of human B7.2 mRNA levels) [%] |
| --- | --- |
| 323658 (antisense eG*e[5mC]*eA*eG*eG*dT*d[5mC]*dA*dA*dA*dT*dT*dT*dA*dT*eG*eT*eA*e[5mC]*eA) [compound 323658] | 36 |
| 323641 (antisense e[5mC]*e[5mC]*e[5mC]*eA*eT*dA*dT*dA*d[5mC]*dT*dT*dG*dG*dA*dA*eT*eG*eA*eA*e[5mC]) [compound 323641] | 88 |
| 323655 (antisense eT*eT*eG*eA*e[5mC]*dT*dG*dA*dA*dG*dT*dT*dA*dG*d[5mC]*eA*eA*eG*e[5mC]*eA) [compound 323655] | 65 |
| 323683 (antisense eT*e[5mC]*eT*eT*e[5mC]*dT*dT*d[5mC]*d[5mC]*dA*dT*dT*dT*d[5mC]*d[5mC]*eA*eT*eA*eG*eA) [compound 323683] | 16 |
| 323625 (antisense e[5mC]*eA*eA*eA*eG*dA*dG*dA*dA*dT*dG*dT*dT*dA*d[5mC]*eT*e[5mC]*eA*eG*eT) [compound 323625] | 21 |
| 323626 (antisense e[5mC]*e[5mC]*eA*eT*e[5mC]*dA*d[5mC]*dA*dA*dA*dG*dA*dG*dA*dA*eT*eG*eT*eT*eA) [compound 323626] | 32 |
| 323674 (antisense e[5mC]*eG*eT*eA*eA*d[5mC]*dA*dT*d[5mC]*dA*dG*dG*dG*dA*dA*eT*eG*eA*eA*eA) [compound 323674] | 47 |
| 323652 (antisense eA*eG*e[5mC]*eA*e[5mC]*dT*dG*dA*d[5mC]*dA*dG*dT*dT*d[5mC]*dA*eG*eA*eA*eT*eT) [compound 323652] | 87 |
| 323672 (antisense eG*eG*eA*eA*eT*dG*dA*dA*dA*d[5mC]*dA*dG*dA*d[5mC]*dA*eA*eG*e[5mC]*eT*eG) [compound 323672] | 33 |
| 323645 (antisense eA*e[5mC]*eA*eA*eG*d[5mC]*d[5mC]*d[5mC]*dT*dT*dG*dT*d[5mC]*d[5mC]*dT*eT*eG*eA*eT*e[5mC]) [compound 323645] | 56 |
| 323693 (antisense eA*eT*eA*e[5mC]*eT*dT*dG*dT*dA*dT*dG*dG*dG*d[5mC]*dT*eT*eT*eA*e[5mC]*eT) [compound 323693] | 62 |
| 323668 (antisense eA*e[5mC]*eA*eT*eT*dA*dT*d[5mC]*dT*dT*dG*dA*dG*dA*dT*eT*eT*e[5mC]*eT*eG) [compound 323668] | 39 |
| 323649 (antisense eG*eA*eA*eT*eT*d[5mC]*dA*dT*d[5mC]*dT*dG*dG*dT*dG*dG*eA*eT*eG*e[5mC]*eG) [compound 323649] | 81 |
| 323662 (antisense eT*eA*eG*e[5mC]*eA*dA*dA*dA*d[5mC]*dA*d[5mC]*dT*d[5mC]*dA*dT*e[5mC]*eT*eT*e[5mC]*eT) [compound 323662] | 22 |
| 323670 (antisense eA*eG*eA*e[5mC]*eA*dA*dG*d[5mC]*dT*dG*dA*dT*dG*dG*dA*eA*eA*e[5mC]*eG*eT) [compound 323670] | 19 |
| 323687 (antisense e[5mC]*eT*eT*e[5mC]*e[5mC]*d[5mC]*dT*d[5mC]*dT*d[5mC]*d[5mC]*dA*dT*dT*dG*eT*eG*eT*eT*eG) [compound 323687] | 19 |
| 323664 (antisense eA*eT*eT*e[5mC]*eT*dT*dG*dG*dT*dT*d[5mC]*dT*dT*dA*dG*e[5mC]*eA*eA*eA*eA) [compound 323664] | 35 |
| 323676 (antisense e[5mC]*e[5mC]*eT*e[5mC]*eA*dA*dG*d[5mC]*dT*d[5mC]*dT*dA*dT*dA*dG*eA*eG*eA*eA*eA) [compound 323676] | 24 |
| 323685 (antisense eT*eT*eG*eG*eT*dT*d[5mC]*d[5mC]*dA*d[5mC]*dA*dT*dT*dT*dA*eT*eA*eA*eG*eA) [compound 323685] | 18 |
| 323686 (antisense e[5mC]*eT*e[5mC]*eT*e[5mC]*d[5mC]*dA*dT*dT*dG*dT*dG*dT*dT*dG*eG*eT*eT*e[5mC]*e[5mC]) [compound 323686] | 53 |
| 323654 (antisense eT*eG*eA*eA*eG*dT*dT*dA*dG*d[5mC]*dA*dA*dG*d[5mC]*dA*e[5mC]*eT*eG*eA*e[5mC]) [compound 323654] | 87 |
| 323630 (antisense eA*eA*eA*eT*eA*dA*dG*d[5mC]*dT*dT*dG*dA*dA*dT*d[5mC]*eT*eT*e[5mC]*eA*eG) [compound 323630] | 22 |
| 323667 (antisense eA*eT*e[5mC]*eT*eT*dG*dA*dG*dA*dT*dT*dT*d[5mC]*dT*dG*e[5mC]*eA*eT*eA*eA) [compound 323667] | 52 |
| 323648 (antisense eT*eG*eG*eA*eT*dG*dA*dT*dA*d[5mC]*dA*dT*dT*dG*dA*eT*eA*e[5mC]*eA*eA) [compound 323648] | 31 |
| 323642 (antisense e[5mC]*eT*eT*eG*eT*dG*d[5mC]*dG*dG*d[5mC]*d[5mC]*d[5mC]*dA*dT*dA*eT*eA*e[5mC]*eT*eT) [compound 323642] | 27 |
| 323627 (antisense eG*eG*eA*eA*eG*dG*d[5mC]*d[5mC]*dA*dT*d[5mC]*dA*d[5mC]*dA*dA*eA*eG*eA*eG*eA) [compound 323627] | 54 |
| 323663 (antisense eG*eT*eT*e[5mC]*eT*dT*dA*dG*d[5mC]*dA*dA*dA*dA*d[5mC]*dA*e[5mC]*eT*e[5mC]*eA*eT) [compound 323663] | 23 |
| 323637 (antisense e[5mC]*e[5mC]*eT*e[5mC]*eA*dT*dT*d[5mC]*dA*dG*dA*dA*d[5mC]*d[5mC]*dA*eA*eG*eT*eT*eT) [compound 323637] | 19 |
| 323651 (antisense eT*eG*eA*e[5mC]*eA*dG*dT*dT*d[5mC]*dA*dG*dA*dA*dT*dT*e[5mC]*eA*eT*e[5mC]*eT) [compound 323651] | 64 |
| 323639 (antisense eG*e[5mC]*e[5mC]*eT*eA*dA*dG*dT*dA*dT*dA*d[5mC]*d[5mC]*dT*d[5mC]*eA*eT*eT*e[5mC]*eA) [compound 323639] | 55 |
